Laboratory results published in publication PMC7382964 (Biochemical pharmacology, 2020).

How the values were obtained:
A3AR [1] = conditions: Gao et al.; cited from earlier work
A3AR [2] = conditions: Gao et al.; cited from earlier work; remark: listed apart in the source
A3AR [3] = conditions: cited from earlier work
cannabinoid receptor CB1 [4] = target: T1, cannabinoid receptor CB1 (Homo sapiens, UniProt P21554); assay: βarr2 recruitment assay with CB1 cannabinoid receptor; format: cell-based; conditions: 5 μM
cannabinoid receptor CB1 [5] = target: T1, cannabinoid receptor CB1; assay: miniGαi coupling assay with CB1 cannabinoid receptor; format: cell-based; conditions: 5 μM
hA3AR [6] = target: hA3AR (Homo sapiens, UniProt P0DMS8); assay: βarr2 recruitment bioassay; format: cell-based
hA3AR [7] = target: T2, hA3AR (Homo sapiens, UniProt P0DMS8); assay: miniGαi recruitment bioassay; format: cell-based
T2 sequence (P0DMS8 1-318): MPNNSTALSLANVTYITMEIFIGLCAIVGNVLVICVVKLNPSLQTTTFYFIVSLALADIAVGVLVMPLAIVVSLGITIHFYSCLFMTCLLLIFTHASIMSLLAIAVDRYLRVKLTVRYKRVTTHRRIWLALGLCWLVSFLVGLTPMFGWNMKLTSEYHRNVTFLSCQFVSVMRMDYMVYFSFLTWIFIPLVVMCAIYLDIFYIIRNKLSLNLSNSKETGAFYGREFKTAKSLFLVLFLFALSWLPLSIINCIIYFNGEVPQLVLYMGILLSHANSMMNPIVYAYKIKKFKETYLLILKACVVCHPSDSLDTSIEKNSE

[8] = addition of 2-chloro substituent
[9] = 90 min read-out, AUC, normalized to NECA

T1 sequence (P21554 whole entry): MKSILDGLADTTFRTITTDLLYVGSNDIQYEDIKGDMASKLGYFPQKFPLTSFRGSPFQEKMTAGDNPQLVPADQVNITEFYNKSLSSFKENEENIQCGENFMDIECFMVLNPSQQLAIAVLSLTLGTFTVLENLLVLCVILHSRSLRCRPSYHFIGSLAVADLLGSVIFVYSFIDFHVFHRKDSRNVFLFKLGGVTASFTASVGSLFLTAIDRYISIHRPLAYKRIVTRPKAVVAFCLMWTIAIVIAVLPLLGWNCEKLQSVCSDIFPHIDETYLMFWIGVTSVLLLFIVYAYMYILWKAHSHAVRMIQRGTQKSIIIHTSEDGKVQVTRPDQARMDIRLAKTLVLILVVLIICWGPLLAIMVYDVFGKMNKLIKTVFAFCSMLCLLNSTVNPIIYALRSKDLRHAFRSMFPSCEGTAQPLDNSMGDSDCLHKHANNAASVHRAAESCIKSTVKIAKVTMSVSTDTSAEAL

In the case of `CNC(=O)[C@H]1O[C@@H](n2cnc3c(NCc4cccc(I)c4)nc(Cl)nc32)[C@H](O)[C@@H]1O` [2-Cl-IB-MECA, 2-chloro-N^6-(3-iodobenzyl)-5′-N-methylcar-boxamidoadenosine], the “agonist class in calcium mobilization assay” value (A3AR [1]) is given as “partial agonist” and the “agonist class in PathHunter assay for βarr2 recruitment” value (A3AR [2]) is given as “full agonist”.

For `OC[C@H]1O[C@@H](n2cnc3c(N[C@H]4C[C@@H]4c4ccccc4)ncnc32)[C@H](O)[C@@H]1O` [compound 1, N^6-((1S,2R)-2-phenyl-1-cyclopropyl)-adenosine], the “signal in βarr2 recruitment assay with CB1-LgBiT” value (cannabinoid receptor CB1 [4]) was “unable to generate a signal” and the “signal in miniGαi coupling assay with CB1-LgBiT” value (cannabinoid receptor CB1 [5]) was “unable to generate a signal”.

For `OCC1OC(n2cnc3c(NC4CC4c4ccccc4)ncnc32)C(O)C1O` (stereo not shown) [compound 2], the “fold reduction in potency versus compound 1, βarr2” value (hA3AR [6]; inversion to 1R,2S orientation) was 40 fold and the “fold reduction in potency versus compound 1, miniGαi” value (hA3AR [7]; inversion to 1R,2S orientation) was ~100 fold.

For `OCC1OC(n2cnc3c(NC4CCCCC4c4ccccc4)ncnc32)C(O)C1O` (stereo not shown) [compound 4], the “receptor activation signal, βarr2 bioassay” value (hA3AR [6]) was “no clear activation signal” and the “receptor activation signal, miniGαi bioassay” value (hA3AR [7]) was “no clear activation signal”.

For `CC(Cc1ccccc1)Nc1nc(Cl)nc2c1ncn2C1OC(CO)C(O)C1O` (stereo not shown) [compound 9], the “fold increased potency versus compound 8, βarr2” value (hA3AR [6]; [8]) was “approximately five” and the “fold increased potency versus compound 8, miniGαi” value (hA3AR [7]; [8]) was “approximately five”.

`CC(C)Nc1ncnc2c1ncn2[C@@H]1O[C@H](CO)[C@H](O)C1O` (stereo partly shown) [compound 10] gave an EC50 (hA3AR [6]; read-out: EC50, βarr2 recruitment, 90 min read-out, AUC, normalized to NECA) of 669 nM and an EC50 (hA3AR [7]; read-out: EC50, miniGαi recruitment, 90 min read-out, AUC, normalized to NECA) of 433 nM.

In the case of `CC(C)C(Nc1ncnc2c1ncn2C1OC(CO)C(O)C1O)C(C)C` (stereo not shown) [compound 12], the “receptor activation signal, βarr2 bioassay” value (hA3AR [6]) is reported as “could not be measured” and the “receptor activation signal, miniGαi bioassay” value (hA3AR [7]) is reported as “could not be measured”.

In the case of `OCC1OC(n2cnc3c(NC(C4CC4)C4CC4)ncnc32)C(O)C1O` (stereo not shown) [compound 13], the “receptor activation signal, βarr2 bioassay” value (hA3AR [6]) is reported as “same observation” and the “receptor activation signal, miniGαi bioassay” value (hA3AR [7]) is reported as “same observation”.

With `OC[C@H]1O[C@@H](n2cnc3c(NCc4ccco4)ncnc32)[C@H](O)[C@@H]1O` [compound 14] the “EC50, βarr2 recruitment” value (hA3AR [6]; [9]) was “micromolar range” and the “EC50, miniGαi recruitment” value (hA3AR [7]; [9]) was “micromolar range”.

In the case of `OCC1OC(n2cnc3c(NCc4cccs4)ncnc32)C(O)C1O` (stereo not shown) [compound 15], the “EC50, βarr2 recruitment” value (hA3AR [6]; [9]) is reported as “micromolar range” and the “EC50, miniGαi recruitment” value (hA3AR [7]; [9]) is reported as “micromolar range”.

With `OCC1OC(n2cnc3c(NC4CCc5ccccc54)ncnc32)C(O)C1O` (stereo not shown) [compound 17] the “EC50, βarr2 recruitment” value (hA3AR [6]; [9]) was “micromolar range” and the “EC50, miniGαi recruitment” value (hA3AR [7]; [9]) was “micromolar range”.

For `OC[C@H]1O[C@@H](n2cnc3c(NCC(c4ccccc4)c4ccccc4)ncnc32)[C@H](O)[C@@H]1O` [compound 19], the “functional class in the cAMP pathway” value (A3AR [3]; Tchilibon et al.) is given as “antagonist”.
